From patent publication US8592367B2, “Nodule specific medicago peptides having antimicrobial activity and pharmaceutical compositions containing the same” (priority 2009, dated 2013)
“Also recorded” adds a separate entry of the source. Read-outs that look alike come from different tables or passages of the source.

Assays:
Xanthomonas 2880 [1] = assay: CFU determination, broad spectrum activity; type: cell-based; conditions: 50 μg/ml, Xanthomonas 2880, untreated 10^7
[2] = system: Pseudomonas syringae pv tomato DC3000; assay: CFU determination, broad spectrum activity; type: cell-based; conditions: 50 μg/ml, Pseudomonas syringae pv tomato DC3000, untreated 10^7
Candida albicans = assay: Antifungal activity in 96-well microtiter plates; type: cell-based; parameters: key: +++: high sensitivity, no hyphal growth; ++: medium sensitivity; +: low sensitivity; −: no effect; conditions: 24 h
Bacillus subtilis [3] = assay: PI staining, broad spectrum activity; type: cell-based; conditions: 50 μg/ml
[4] = system: Rhizopus stolonifer var. stolonifer; assay: Antifungal activity in 96-well microtiter plates; type: cell-based; parameters: key: +++: high sensitivity, no hyphal growth; ++: medium sensitivity; +: low sensitivity; −: no effect; conditions: 24 h
Xanthomonas 2880 [5] = assay: PI staining, broad spectrum activity; type: cell-based; conditions: 50 μg/ml
[6] = system: Curtobacterium, flaccumfaciens; assay: CFU determination, broad spectrum activity; type: cell-based; conditions: 50 μg/ml, untreated 10^9
Staphylococcus aureus [7] = assay: PI staining, broad spectrum activity; type: cell-based; conditions: 50 μg/ml
[8] = system: Sinorhizobium meliloti AK631; assay: CFU determination of Sinorhizobium meliloti; conditions: for CFU % / CFU (colony/ml): 1 hr; for CFU determination (colony formation): 3 hours, 2-3×10^6 bacteria, FIG. 2B; for CFU: Sinorhizobium meliloti (AK631), untreated 10^7; for eradication of the bacteria: from the low dose of 20 μg/ml
Staphylococcus aureus [9] = assay: CFU determination, broad spectrum activity; type: cell-based; conditions: 50 μg/ml, untreated 10^6
Aspergillus flavus = assay: Antifungal activity in 96-well microtiter plates; type: cell-based; parameters: key: +++: high sensitivity, no hyphal growth; ++: medium sensitivity; +: low sensitivity; −: no effect; conditions: 24 h
Bacillus subtilis [10] = assay: CFU determination, broad spectrum activity; type: cell-based; conditions: 50 μg/ml, untreated 10^6
Candida crusei = assay: Antifungal activity in 96-well microtiter plates; type: cell-based; parameters: key: +++: high sensitivity, no hyphal growth; ++: medium sensitivity; +: low sensitivity; −: no effect; conditions: 24 h
Clavibacter michigense [11] = assay: PI staining, broad spectrum activity; type: cell-based; conditions: 50 μg/ml
Clavibacter michigense [12] = assay: CFU determination, broad spectrum activity; type: cell-based; conditions: 50 μg/ml, untreated 10^9
Candida parapsilosis = assay: Antifungal activity in 96-well microtiter plates; type: cell-based; parameters: key: +++: high sensitivity, no hyphal growth; ++: medium sensitivity; +: low sensitivity; −: no effect; conditions: 24 h
Fusarium graminearum = type: cell-based; parameters: key: +++: high sensitivity, no hyphal growth; ++: medium sensitivity; +: low sensitivity; −: no effect; conditions: 24 h
[13] = system: Curtobacterium, flaccumfaciens; assay: PI staining, broad spectrum activity; type: cell-based; conditions: 50 μg/ml
[14] = system: Pseudomonas syringae pv tomato DC3000; assay: PI staining, broad spectrum activity; type: cell-based; conditions: 50 μg/ml
Aspergillus niger = assay: Antifungal activity in 96-well microtiter plates; type: cell-based; parameters: key: +++: high sensitivity, no hyphal growth; ++: medium sensitivity; +: low sensitivity; −: no effect; conditions: 24 h
[15] = system: Sinorhizobium meliloti AK631; assay: PI staining of Sinorhizobium meliloti; conditions: 50 μg/ml; for PI: Sinorhizobium meliloti (AK631)

Substance: NCR035: cationic NCR peptide (SFLGTFISSCKRDKDCPKLYGANFRCRKGTCVPPI; Peptide derived from Medicago truncatula)
- CFU (Xanthomonas 2880 [1]): CFU: 10^2
- CFU [2]: CFU: 10^7
- Fungal (hyphal) growth, sensitivity (Candida albicans; 25 μg/ml): +
- Fungal (hyphal) growth, sensitivity (Candida albicans; 50 μg/ml): ++
- Fungal (hyphal) growth, sensitivity (Candida albicans; 100 μg/ml): ++
- PI (Bacillus subtilis [3]): PI: 100%
- Fungal (hyphal) growth, sensitivity ([4]; 25 μg/ml): −
- Fungal (hyphal) growth, sensitivity ([4]; 50 μg/ml): +
- Fungal (hyphal) growth, sensitivity ([4]; 100 μg/ml): ++
- PI (Xanthomonas 2880 [5]): PI: 100%
- CFU [6]: CFU: 10^5
- PI (Staphylococcus aureus [7]): PI: 100%
- CFU % ([8]; 20 μg/ml): 0%
- CFU (colony/ml) ([8]; 20 μg/ml): 21000 colony/ml
- CFU % ([8]; 50 μg/ml): 0%
- CFU (colony/ml) ([8]; 50 μg/ml): 0 colony/ml
- CFU determination (colony formation) ([8]; 50 μg/ml): none formed colony
- CFU ([8]; 50 μg/ml): CFU: 0
- eradication of the bacteria [8]: able to eradicate the bacteria in less than an hour
- CFU (Staphylococcus aureus [9]): CFU: 10^6
- Fungal (hyphal) growth, sensitivity (Aspergillus flavus; 25 μg/ml): −
- Fungal (hyphal) growth, sensitivity (Aspergillus flavus; 50 μg/ml): +
- Fungal (hyphal) growth, sensitivity (Aspergillus flavus; 100 μg/ml): ++
- CFU (Bacillus subtilis [10]): CFU: 10^3
- Fungal (hyphal) growth, sensitivity (Candida crusei; 25 μg/ml): +
- Fungal (hyphal) growth, sensitivity (Candida crusei; 50 μg/ml): ++
- Fungal (hyphal) growth, sensitivity (Candida crusei; 100 μg/ml): ++
- PI (Clavibacter michigense [11]): PI: 110%
- CFU (Clavibacter michigense [12]): CFU: 10^4
- Fungal (hyphal) growth, sensitivity (Candida parapsilosis; 25 μg/ml): +
- Fungal (hyphal) growth, sensitivity (Candida parapsilosis; 50 μg/ml): ++
- Fungal (hyphal) growth, sensitivity (Candida parapsilosis; 100 μg/ml): ++
- Fungal (hyphal) growth, sensitivity (Fusarium graminearum; 25 μg/ml): −
- Fungal (hyphal) growth, sensitivity (Fusarium graminearum; 50 μg/ml): +
- Fungal (hyphal) growth, sensitivity (Fusarium graminearum; 100 μg/ml): ++
- PI [13]: PI: 78%
- PI [14]: PI: 100%
- Fungal (hyphal) growth, sensitivity (Aspergillus niger; 25 μg/ml): −
- Fungal (hyphal) growth, sensitivity (Aspergillus niger; 50 μg/ml): −
- Fungal (hyphal) growth, sensitivity (Aspergillus niger; 100 μg/ml): +
- PI staining (PI uptake) ([15]; FIG. 2A, listed as NCR35): provoked PI uptake; also recorded: comparable to heat killed bacteria or bacteria treated with polymyxin B
- PI [15]: PI: 90%

Substance: NCR224: anionic NCR peptide (KDLPFNICEKDEDCLEFCAHDKVAKCMLNICFCF; Peptide derived from Medicago truncatula)
- CFU % ([8]; 20 μg/ml): 130%
- CFU (colony/ml) ([8]; 20 μg/ml): 52900000 colony/ml
- CFU % ([8]; 50 μg/ml): 48%
- CFU (colony/ml) ([8]; 50 μg/ml): 19600000 colony/ml
- CFU determination (colony formation) ([8]; 50 μg/ml): reduced growth capacity

Substance: NCR057: cationic NCR peptide (RPVSCKDHYDCRRKVKIVGCIFPQEKPMCINSMCTCIREIVP; Peptide derived from Medicago truncatula)
- CFU [2]: CFU: 10^6
- PI (Xanthomonas 2880 [5]): PI: 65%
- CFU [6]: CFU: 0
- PI (Staphylococcus aureus [7]): PI: 47%
- CFU % ([8]; 20 μg/ml): 148%
- CFU (colony/ml) ([8]; 20 μg/ml): 9800000 colony/ml
- CFU % ([8]; 50 μg/ml): 68%
- CFU (colony/ml) ([8]; 50 μg/ml): 4500000 colony/ml
- CFU determination (colony formation) ([8]; 50 μg/ml): reduced growth capacity
- CFU ([8]; 50 μg/ml): CFU: 10^6
- eradication of the bacteria [8]: able to eradicate the bacteria in less than an hour
- CFU (Staphylococcus aureus [9]): CFU: 10^6
- CFU (Bacillus subtilis [10]): CFU: 10^6
- PI (Clavibacter michigense [11]): PI: 70%
- PI [13]: PI: 60%
- PI [14]: PI: 50%
- PI [15]: PI: 35%
